One assay concerns the target T1, Erk1 (Homo sapiens, UniProt P27361).
T1 construct: purchased Millipore 14-439
As to the kind of experiment: Protein Mass Modification Assay (intact protein MALDI, 60 min, 10-fold excess of compound). The assay is classed as binding. In short, it runs like this:
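Percent covalent modification comes from the intact-protein MALDI centroid mass shift, treated versus control, divided by compound MW. Before analysis, human Erk1 was exposed to compound at 10-fold excess over protein for 60 min at room temperature.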

In a further assay the target is T2, MEK1 activated ERK1 (Homo sapiens, UniProt P27361).
T2 construct: purchased Millipore (Billerica, Mass.) 14-439-K
The assay is described as follows: Omnia continuous-read kinase assay for potency against MEK1 activated ERK1. The assay is classed as biochemical. In short, it runs like this: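 Apparent IC50 came from initial reaction slopes (RFU vs time) plotted against log inhibitor with a variable-slope fit. Reactions were started with ERK1 (4 nM final) added to 50 μM ATP, roughly at its appKM, and 10 μM Sox-conjugated ST17 peptide in 20 mM Tris pH 7.5, 5 mM MgCl2. Fluorescence was monitored every 71 seconds.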

For assay [1], the system named is ERK1/2 phosphorylation of p90RSK in A375 cells. The assay is described as follows: Detection of total and phosphor-RSK by MSD ELISA (A375). The class given is cell-based. Conditions: Homo sapiens, A-375, read-out: ERK1/ERK2 PRSK A375 EC50. In outline:
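Electrochemiluminescent MSD ELISA: common RSK capture antibody, with pRSK Ser380 or total RSK detection antibodies plus SulfoTag secondaries. Samples were lysates of A375 cells exposed to compound for 2 h at 37° C after overnight culture in 0.1% FBS DMEM.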
(In general: In an ELISA, binding on a coated surface is turned into a signal by an enzyme label.)

Where [2] appears, read: MEK1 activated ERK1, ATP at KM, read-out: ERK1 Omnia WT ATP KM IC50.

The source of these data is US9561228B2 (Celgene Avilomics Research, Inc., priority 2013, dated 2017).

Where two headings read alike, the source gives them in different places. Some results are limits rather than exact numbers.

T2 sequence (P27361 whole entry): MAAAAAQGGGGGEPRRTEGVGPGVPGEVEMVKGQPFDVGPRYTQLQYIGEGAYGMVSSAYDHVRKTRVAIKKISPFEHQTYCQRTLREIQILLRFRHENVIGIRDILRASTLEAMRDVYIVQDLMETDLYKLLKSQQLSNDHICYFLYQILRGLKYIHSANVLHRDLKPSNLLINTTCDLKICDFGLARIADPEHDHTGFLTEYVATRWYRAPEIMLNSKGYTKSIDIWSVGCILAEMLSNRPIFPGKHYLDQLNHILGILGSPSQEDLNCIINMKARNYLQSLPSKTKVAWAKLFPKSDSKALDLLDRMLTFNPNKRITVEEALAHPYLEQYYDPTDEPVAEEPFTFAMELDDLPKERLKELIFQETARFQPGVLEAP
T1 sequence (P27361 whole entry): as above

As usually defined, the IC50 is the point on the concentration scale where inhibition reaches its midpoint. `C=CC(=O)Nc1cc(C)c(F)cc1Nc1nc(Nc2nc(OC)ncc2C)ncc1C(F)(F)F` [Compound I-377, N-(4-fluoro-2-((2-((2-methoxy-5-methylpyrimidin-4-yl)amino)-5-(trifluoromethyl)pyrimidin-4-yl)amino)-5-methylphenyl)acrylamide]: the “ERK1 Mass Mod (%)” value at Erk1 is “E (a mass modification of ≧70%)”. Besides, the IC50 at MEK1 activated ERK1 (ATP at KM, WT) was less than 100 nM. The EC50 in assay [1] was less than 100 nM.
Consider `C=CC(=O)Nc1cc(C)ccc1Nc1nc(Nc2nc(OC)ccc2Cl)ncc1C(F)(F)F` [Compound I-360, N-(2-((2-((3-chloro-6-methoxypyridin-2-yl)amino)-5-(trifluoromethyl)pyrimidin-4-yl)amino)-5-methylphenyl)acrylamide], for which the “ERK1 Mass Mod (%)” value at Erk1 is reported as “E (a mass modification of ≧70%)”. In assay [1], the EC50 fell in the range of 101 to 500 nM.
On to `C=CC(=O)Nc1cc(C)ccc1Nc1nc(Nc2ncc(C(F)(F)F)c(OC)n2)ncc1C(F)(F)F` [Compound I-354, N-(2-((2-((4-methoxy-5-(trifluoromethyl)pyrimidin-2-yl)amino)-5-(trifluoromethyl)pyrimidin-4-yl)amino)-5-methylphenyl)acrylamide], for which the “ERK1 Mass Mod (%)” value on Erk1 is “E (a mass modification of ≧70%)”. Moreover, the IC50 at MEK1 activated ERK1 (ATP at KM, WT) was 101 to 500 nM. The EC50 in assay [1] fell in the range of 101 to 500 nM.
As to `C=CC(=O)Nc1cc(CN2CCN(C)CC2)ccc1Nc1nc(Nc2nc(OC)ncc2C)ncc1C(F)(F)F` [Compound I-394, N-(2-((2-((2-methoxy-5-methylpyrimidin-4-yl)amino)-5-(trifluoromethyl)pyrimidin-4-yl)amino)-5-((4-methylpiperazin-1-yl)methyl)phenyl)acrylamide], the “ERK1 Mass Mod (%)” value at Erk1 is given as “E (a mass modification of ≧70%)”. Besides, the half-inhibitory concentration (IC50) at MEK1 activated ERK1 (ATP at KM, WT) is 101 to 500 nM. Moreover, in assay [1], the EC50 is more than 1000 nM.
Consider `C=CC(=O)Nc1cc(CN2CCN(C(=O)c3cnccn3)CC2)ccc1Nc1nc(Nc2cc(OC)ncc2C)ncc1C(F)(F)F` [Compound I-390, N-(2-((2-((2-methoxy-5-methylpyridin-4-yl)amino)-5-(trifluoromethyl)pyrimidin-4-yl)amino)-5-((4-(pyrazine-2-carbonyl)piperazin-1-yl)methyl)phenyl)acrylamide], for which the “ERK1 Mass Mod (%)” value at Erk1 was “E (a mass modification of ≧70%)”. In addition, the IC50 on MEK1 activated ERK1 (ATP at KM, WT) was less than 100 nM. Besides, the EC50 in assay [1] was less than 100 nM.
On to `C=CC(=O)Nc1cc(C)c(F)cc1Nc1nc(Nc2cc(OC)ncc2C)ncc1C(F)(F)F` [Compound I-366, N-(4-fluoro-2-((2-((2-methoxy-5-methylpyridin-4-yl)amino)-5-(trifluoromethyl)pyrimidin-4-yl)amino)-5-methylphenyl)acrylamide], for which the “ERK1 Mass Mod (%)” value on Erk1 is given as “E (a mass modification of ≧70%)”. Besides, the IC50 on MEK1 activated ERK1 (ATP at KM, WT) is more than 1000 nM. For the same compound, the EC50 in assay [1] is more than 1000 nM.
Turning to `C=CC(=O)Nc1cc(C)ccc1Nc1nc(Nc2cc(OCCOC)ncc2C)ncc1C(F)(F)F` [Compound I-359, N-(2-((2-((2-(2-methoxyethoxy)-5-methylpyridin-4-yl)amino)-5-(trifluoromethyl)pyrimidin-4-yl)amino)-5-methylphenyl)acrylamide], at Erk1, the “ERK1 Mass Mod (%)” value was “E (a mass modification of ≧70%)”. The IC50 at MEK1 activated ERK1 (ATP at KM, WT) fell in the range of 101 to 500 nM. Further, the EC50 in assay [1] lay in the range of 101 to 500 nM.
As for `C=CC(=O)Nc1cc(C)ccc1Nc1nc(Nc2cc(NCCOC)nc(OC)c2)ncc1C(F)(F)F` [Compound I-294, N-(2-((2-((2-methoxy-6-((2-methoxyethyl)amino)pyridin-4-yl)amino)-5-(trifluoromethyl)pyrimidin-4-yl)amino)-5-methylphenyl)acrylamide], the “ERK1 Mass Mod (%)” value on Erk1 was “E (a mass modification of ≧70%)”. On MEK1 activated ERK1 (setting [2]), the half-inhibitory concentration (IC50) lay within 101 to 500 nM. Besides, the EC50 in assay [1] is less than 100 nM.
With `C=CC(=O)Nc1cc(CN2CCN(S(C)(=O)=O)CC2)ccc1Nc1nc(Nc2cc(OC)ncc2C)ncc1C(F)(F)F` [Compound I-384, N-(2-((2-((2-methoxy-5-methylpyridin-4-yl)amino)-5-(trifluoromethyl)pyrimidin-4-yl)amino)-5-((4-(methylsulfonyl)piperazin-1-yl)methyl)phenyl)acrylamide], the “ERK1 Mass Mod (%)” value on Erk1 was “E (a mass modification of ≧70%)”. The IC50 at MEK1 activated ERK1 (ATP at KM, WT) is less than 100 nM. Besides, in assay [1], the EC50 was less than 100 nM.
Regarding `C=CC(=O)Nc1cc(C)ccc1Nc1nc(Nc2cc(N[C@H]3CC[C@](C)(O)CC3)nc(OC)c2)ncc1C(F)(F)F` [Compound I-327, N-(2-((2-((2-((trans-4-hydroxy-4-methylcyclohexyl)amino)-6-methoxypyridin-4-yl)amino)-5-(trifluoromethyl)pyrimidin-4-yl)amino)-5-methylphenyl)acrylamide], the “ERK1 Mass Mod (%)” value at Erk1 is listed as “E (a mass modification of ≧70%)”. Also, the IC50 on MEK1 activated ERK1 (setting [2]) lay within 101 to 500 nM. Further, the EC50 in assay [1] is less than 100 nM.
Consider `C=CC(=O)Nc1cc(CN2CCN(S(C)(=O)=O)CC2)ccc1Nc1nc(Nc2nc(OC)ncc2C)ncc1C(F)(F)F` [Compound I-383, N-(2-((2-((2-methoxy-5-methylpyrimidin-4-yl)amino)-5-(trifluoromethyl)pyrimidin-4-yl)amino)-5-((4-(methylsulfonyl)piperazin-1-yl)methyl)phenyl)acrylamide], for which the “ERK1 Mass Mod (%)” value at Erk1 is “E (a mass modification of ≧70%)”. The concentration for half-maximal inhibition (IC50) on MEK1 activated ERK1 (ATP at KM, WT) was in the range of 101 to 500 nM. For the same compound, in assay [1], the EC50 was more than 1000 nM.
On to `C=CC(=O)Nc1cc(CN2CCN(C(=O)c3cccnc3)CC2)ccc1Nc1nc(Nc2cc(OC)ncc2C)ncc1C(F)(F)F` [Compound I-389, N-(2-((2-((2-methoxy-5-methylpyridin-4-yl)amino)-5-(trifluoromethyl)pyrimidin-4-yl)amino)-5-((4-nicotinoylpiperazin-1-yl)methyl)phenyl)acrylamide], for which the “ERK1 Mass Mod (%)” value at Erk1 was “E (a mass modification of ≧70%)”. Moreover, on MEK1 activated ERK1 (ATP at KM, WT), the IC50 is less than 100 nM. In addition, in assay [1], the EC50 was less than 100 nM.
For `C=CC(=O)Nc1cc(C)ccc1Nc1nc(Nc2cc(C(C)=O)ccc2C)ncc1C(F)(F)F` [Compound I-84, N-(2-((2-((5-Acetyl-2-methylphenyl)amino)-5-(trifluoromethyl)pyrimidin-4-yl)amino)-5-methylphenyl)acrylamide], on Erk1, the “ERK1 Mass Mod (%)” value is “E (key: E: a mass modification of ≧70%; F: a mass modification of 31-69%; G: a mass modification ≦30%)”. Besides, at MEK1 activated ERK1 (setting [2]), the IC50 is 101 to 500 nM.
For the compound `C=CC(=O)Nc1cc(C)ccc1Nc1nc(Nc2cc(OC)cnc2Cl)ncc1C(F)(F)F` [Compound I-361, N-(2-((2-((2-chloro-5-methoxypyridin-3-yl)amino)-5-(trifluoromethyl)pyrimidin-4-yl)amino)-5-methylphenyl)acrylamide], the “ERK1 Mass Mod (%)” value at Erk1 is recorded as “E (a mass modification of ≧70%)”. In addition, the EC50 in assay [1] was in the range of 101 to 500 nM.
Taken in the same sequence, the figures for `C=CC(=O)Nc1cc(C)ccc1Nc1nc(Nc2nc(OC)ncc2Cl)ncc1C(F)(F)F` [Compound I-344, N-(2-((2-((5-chloro-2-methoxypyrimidin-4-yl)amino)-5-(trifluoromethyl)pyrimidin-4-yl)amino)-5-methylphenyl)acrylamide] were “E (a mass modification of ≧70%)” and 101 to 500 nM.
Taken in the same sequence, the figures for `C=CC(=O)Nc1cc(C)ccc1Nc1nc(Nc2nc(O)ncc2C)ncc1C(F)(F)F` [Compound I-364, N-(2-((2-((2-hydroxy-5-methylpyrimidin-4-yl)amino)-5-(trifluoromethyl)pyrimidin-4-yl)amino)-5-methylphenyl)acrylamide] were “E (a mass modification of ≧70%)” and less than 100 nM.
